Measurements taken from PMC2833169, “Anti-malarial activity of a non-piperidine library of next-generation quinoline methanols” (Malaria Journal, 2010).
pIC50: −log10 of the molar value. Converted amounts (≈) assume the structure as drawn. Like-named read-outs stand apart in the source and are kept apart here.

Key:
[1] = system: P. falciparum strain TM90C2A; assay: labeled hypoxanthine susceptibility assay, P. falciparum TM90C2A; type: cell-based, Plasmodium falciparum; conditions: for CSI (C2A/W2): ratio of IC90 C2A to IC90 W2
Protocol: (§1) The in vitro activities of quinoline methanols against P. falciparum strains W2, D6, TM91C235, and TM90C2A were evaluated using the traditional labeled hypoxanthine assay of Desjardins et al as modified by Milhous et al. These four P. falciparum strains were selected since they have various levels of resistance to conventional anti-malarials.

[2] = system: rodent macrophage (RAW) cell line; assay: cells; conditions: read-out: Macrophage IC50
Protocol: General cytotoxicity was assessed by first determining LC50 's against a rodent macrophage (RAW) cell line using the 3-(4,5-dimethylthiazole-2-yl)-2,5-diphenyltetrazolium bromide (MTT) assay as described in one of our earlier studies. This screen was conducted to identify compounds that may require de-selection due to generalized toxicity. […] In vitro neurocytotoxicity was assessed by determining LC50s against primary mouse neurons using the MTT assay as described previously. Inhibition of the A2A and A1 receptors was determined at 200 nM in duplicate by Caliper Biosciences (Hanover, Maryland).

P. falciparum strain D6 = assay: labeled hypoxanthine susceptibility assay, P. falciparum D6; type: cell-based, Plasmodium falciparum; conditions: for IC90: Plasmodium falciparum
Protocol: as §1

P. falciparum strain W2 = assay: labeled hypoxanthine susceptibility assay, P. falciparum W2; type: cell-based, Plasmodium falciparum; conditions: for IC90: Plasmodium falciparum
Protocol: as §1

[3] = system: P. falciparum strain TM91C235; assay: labeled hypoxanthine susceptibility assay, P. falciparum TM91C235; type: cell-based, Plasmodium falciparum; conditions: for IC90: Plasmodium falciparum, read-out: PF C235 IC90
Protocol: as §1

[4] = Plasmodium falciparum, TM90C2A, read-out: PF C2A IC90
[5] = D6, read-out: PF D6 IC90, P. falciparum D6
[6] = Plasmodium falciparum, TM90C2A, read-out: IC90 PfC2A

For `OC(CNCCc1ccccc1)c1cc(C(F)(F)F)nc2c(C(F)(F)F)cccc12` (racemic) [compound 308253], the IC90 [1, 4] was 0.0425 µg/mL, the “CSI (C2A/W2)” value [1] was 9.0 and the pIC50 ([2]; Mus musculus, Macrophage) was 4.65. It also gave an IC90 (P. falciparum strain D6; [5]) of 0.0191 µg/mL (≈ 0.0446 µM), an IC90 (P. falciparum strain W2; W2, read-out: PF W2 IC90) of 0.00472 µg/mL (≈ 0.011 µM) and an IC90 [3] of 0.0229 µg/mL (≈ 0.0536 µM).

With `N#CCCN(CC(O)c1cc(C(F)(F)F)nc2c(C(F)(F)F)cccc12)C1CCCCC1` (racemic) [compound 308486] the IC90 [1, 4] was 0.0662 µg/mL, the “CSI (C2A/W2)” value [1] was 12.1 and the pIC50 ([2]; Mus musculus, Macrophage) was 4.73. It also gave an IC90 (P. falciparum strain D6; [5]) of 0.0312 µg/mL (≈ 0.0678 µM), an IC90 (P. falciparum strain W2; W2, read-out: PF W2 IC90) of 0.00549 µg/mL (≈ 0.0119 µM) and an IC90 [3] of 0.0413 µg/mL (≈ 0.0899 µM).

`CCCNCC(O)c1cc(C(F)(F)F)nc2c(C(F)(F)F)cccc12` (racemic) [WR183544] gave an IC90 [1, 6] of 40 nM.

With `OC(CN1CCCC1)c1cc(C(F)(F)F)nc2c(C(F)(F)F)cccc12` (racemic) [compound 308268] the “PF C2A IC90” value ([1]; P. falciparum TM90C2A) was 0.09268 µg/mL, the IC90 ([1]; calculated from ng/ml IC90 with MW in Column C, read-out: Pf C2A IC90 nM values calculated using MW in Column C) was 245 nM and the “CSI (C2A/W2)” value [1] was 7.7. For the same compound, the pIC50 ([2]; RAW macrophages, range in brackets) was 5.07, the “PF D6 IC90” value (P. falciparum strain D6; P. falciparum D6) was 0.04702 µg/mL and the “PF W2 IC90” value (P. falciparum strain W2; P. falciparum W2) was 0.01205 µg/mL. For the same compound, the “PF C235 IC90” value ([3]; P. falciparum TM91C235) was 0.04519 µg/mL.

Compound `CC(C)N(CC(O)c1cc(C(F)(F)F)nc2c(C(F)(F)F)cccc12)C(C)C` (racemic) [WR308277] has an IC90 [1, 6] of 75 nM.

With `CCN(CC)CC(O)c1cc(C(F)(F)F)nc2c(C(F)(F)F)cccc12` (racemic) [compound 308254] the IC90 [1, 4] was 0.0669 µg/mL, the “CSI (C2A/W2)” value [1] was 7.4 and the pIC50 ([2]; Mus musculus, Macrophage) was 5.26. For the same compound, the IC90 (P. falciparum strain D6; [5]) was 0.0264 µg/mL (≈ 0.0694 µM), the IC90 (P. falciparum strain W2; W2, read-out: PF W2 IC90) was 0.00901 µg/mL (≈ 0.0237 µM) and the IC90 [3] was 0.0365 µg/mL (≈ 0.096 µM).

Work on `Cc1ccc(CNCC(O)c2cc(C(F)(F)F)nc3c(C(F)(F)F)cccc23)cc1` (racemic) [WR308375] yielded an IC90 [1, 6] of 103 nM.

In the case of `CCCCNCC(O)c1cc(C(F)(F)F)nc2c(C(F)(F)F)cccc12` (racemic) [compound 177000], the IC90 [1, 4] was 0.0123 µg/mL, the “CSI (C2A/W2)” value [1] was 7.3 and the pIC50 ([2]; Mus musculus, Macrophage) was 5.11. The IC90 (P. falciparum strain D6; [5]) was 0.00658 µg/mL (≈ 0.0173 µM), the IC90 (P. falciparum strain W2; W2, read-out: PF W2 IC90) was 0.00169 µg/mL (≈ 0.00444 µM) and the IC90 [3] was 0.00891 µg/mL (≈ 0.0234 µM).

In the case of `OC(c1cc(C(F)(F)F)nc2c(C(F)(F)F)cccc12)C1CCCCN1` (stereo not shown) [142490 (MQ)], the IC90 [1, 4] was 0.071 µg/mL, the IC90 ([1]; Plasmodium falciparum, TM90C2A, read-out: Pf C2A IC90 nM values calculated using MW in Column C) was 171 nM and the “CSI (C2A/W2)” value [1] was 6.5. The pIC50 ([2]; Mus musculus, Macrophage) was 5.14, the IC90 (P. falciparum strain D6; P. falciparum D6, read-out: PF D6 IC90) was 0.025 µg/mL (≈ 0.0661 µM) and the IC90 (P. falciparum strain W2; P. falciparum W2, read-out: PF W2 IC90) was 0.011 µg/mL (≈ 0.0291 µM). It also gave an IC90 ([3]; P. falciparum TM91C235) of 0.064 µg/mL (≈ 0.169 µM).

`OC(CNCCC1=CCCCC1)c1cc(C(F)(F)F)nc2c(C(F)(F)F)cccc12` (racemic) [WR308249] gave an IC90 [1, 6] of 160 nM.

For `CC1CCN(CC(C)(C)NCC(O)c2cc(C(F)(F)F)nc3c(C(F)(F)F)cccc23)CC1` (racemic) [WR308592], the IC90 [1, 6] was 137 nM.

`OC(CNCCc1ccccc1)c1cc(C(F)(F)F)nc2c(C(F)(F)F)cccc12` (racemic) [WR308253] showed an IC90 [1, 6] of 99 nM.

In the case of `N#CCCN(CC(O)c1cc(C(F)(F)F)nc2c(C(F)(F)F)cccc12)C1CCCCC1` (racemic) [WR308486], the IC90 [1, 6] was 144 nM.

For `OC(CNCCC1=CCCCC1)c1cc(C(F)(F)F)nc2c(C(F)(F)F)cccc12` (racemic) [compound 308249], the IC90 [1, 4] was 0.0693 µg/mL, the “CSI (C2A/W2)” value [1] was 7.8 and the pIC50 ([2]; Mus musculus, Macrophage) was 4.57. The IC90 (P. falciparum strain D6; [5]) was 0.033 µg/mL (≈ 0.0762 µM), the IC90 (P. falciparum strain W2; W2, read-out: PF W2 IC90) was 0.00885 µg/mL (≈ 0.0205 µM) and the IC90 [3] was 0.0392 µg/mL (≈ 0.0906 µM).

`CCN(CC)CC(O)c1cc(C(F)(F)F)nc2c(C(F)(F)F)cccc12` (racemic) [WR308254] gave an IC90 [1, 6] of 176 nM.

With `CC1CCN(CC(C)(C)NCC(O)c2cc(C(F)(F)F)nc3c(C(F)(F)F)cccc23)CC1` (racemic) [compound 308592] the IC90 [1, 4] was 0.0653 µg/mL, the “CSI (C2A/W2)” value [1] was 14.7 and the pIC50 ([2]; Mus musculus, Macrophage) was 4.42. The IC90 (P. falciparum strain D6; [5]) was 0.0284 µg/mL (≈ 0.0594 µM), the IC90 (P. falciparum strain W2; W2, read-out: PF W2 IC90) was 0.00445 µg/mL (≈ 0.00932 µM) and the IC90 [3] was 0.0625 µg/mL (≈ 0.131 µM).

With `CCCNCC(O)c1cc(C(F)(F)F)nc2c(C(F)(F)F)cccc12` (racemic) [compound 183544] the IC90 [1, 4] was 0.016 µg/mL, the “CSI (C2A/W2)” value [1] was 14.5 and the IC90 (P. falciparum strain D6; [5]) was 0.0067 µg/mL (≈ 0.0183 µM). It also gave an IC90 (P. falciparum strain W2; W2, read-out: PF W2 IC90) of 0.0011 µg/mL (≈ 0.003 µM) and an IC90 [3] of 0.014 µg/mL (≈ 0.0382 µM).

For `CC(C)N(CC(O)c1cc(C(F)(F)F)nc2c(C(F)(F)F)cccc12)C(C)C` (racemic) [compound 308277], the IC90 [1, 4] was 0.0305 µg/mL, the “CSI (C2A/W2)” value [1] was 6.7 and the pIC50 ([2]; Mus musculus, Macrophage) was 4.09. The IC90 (P. falciparum strain D6; [5]) was 0.0195 µg/mL (≈ 0.0477 µM), the IC90 (P. falciparum strain W2; W2, read-out: PF W2 IC90) was 0.00452 µg/mL (≈ 0.0111 µM) and the IC90 [3] was 0.0209 µg/mL (≈ 0.0512 µM).

With `OC(CNC1CCCCC1)c1cc(C(F)(F)F)nc2c(C(F)(F)F)cccc12` (racemic) [compound 308248] the IC90 [1, 4] was 0.027 µg/mL, the “CSI (C2A/W2)” value [1] was 10.8 and the pIC50 ([2]; Mus musculus, Macrophage) was 4.70. It also gave an IC90 (P. falciparum strain D6; [5]) of 0.00957 µg/mL (≈ 0.0235 µM), an IC90 (P. falciparum strain W2; W2, read-out: PF W2 IC90) of 0.00249 µg/mL (≈ 0.00613 µM) and an IC90 [3] of 0.0144 µg/mL (≈ 0.0353 µM).

`OC(CNc1nc2ccccc2[nH]1)c1cc(C(F)(F)F)nc2c(C(F)(F)F)cccc12` (racemic) [compound 308491] was tested, and the IC90 [1, 4] was 0.0835 µg/mL, the “CSI (C2A/W2)” value [1] was 3.8 and the pIC50 ([2]; Mus musculus, Macrophage) was 4.81. The IC90 (P. falciparum strain D6; [5]) was 0.0482 µg/mL (≈ 0.11 µM), the IC90 (P. falciparum strain W2; W2, read-out: PF W2 IC90) was 0.0219 µg/mL (≈ 0.0498 µM) and the IC90 [3] was 0.0716 µg/mL (≈ 0.163 µM).

With `Cc1ccc(CNCC(O)c2cc(C(F)(F)F)nc3c(C(F)(F)F)cccc23)cc1` (racemic) [compound 308375] the IC90 [1, 4] was 0.044 µg/mL, the “CSI (C2A/W2)” value [1] was 8.4 and the pIC50 ([2]; Mus musculus, Macrophage) was under 4.00. For the same compound, the IC90 (P. falciparum strain D6; [5]) was 0.0392 µg/mL (≈ 0.0916 µM), the IC90 (P. falciparum strain W2; W2, read-out: PF W2 IC90) was 0.00526 µg/mL (≈ 0.0123 µM) and the IC90 [3] was 0.0443 µg/mL (≈ 0.103 µM).

In the case of `CCCCN(CCCC)CC(O)c1cc(C(F)(F)F)nc2c(C(F)(F)F)cccc12` (racemic) [WR176990], the IC90 [1, 6] was 44 nM.

For `OC(CNc1nc2ccccc2[nH]1)c1cc(C(F)(F)F)nc2c(C(F)(F)F)cccc12` (racemic) [WR308491], the IC90 [1, 6] was 190 nM.

`OC(CNC1CCCCC1)c1cc(C(F)(F)F)nc2c(C(F)(F)F)cccc12` (racemic) [WR308248] was tested, and the IC90 [1, 6] was 66 nM.

With `CCCCN(CCCC)CC(O)c1cc(C(F)(F)F)nc2c(C(F)(F)F)cccc12` (racemic) [compound 176990] the IC90 [1, 4] was 0.019 µg/mL, the “CSI (C2A/W2)” value [1] was 7.9 and the pIC50 ([2]; Mus musculus, Macrophage) was 4.34. For the same compound, the IC90 (P. falciparum strain D6; [5]) was 0.011 µg/mL (≈ 0.0252 µM), the IC90 (P. falciparum strain W2; W2, read-out: PF W2 IC90) was 0.00239 µg/mL (≈ 0.00548 µM) and the IC90 [3] was 0.027 µg/mL (≈ 0.0619 µM).

`CCCCN(CCC#N)CC(O)c1cc(C(F)(F)F)nc2c(C(F)(F)F)cccc12` (racemic) [WR308485] gave an IC90 [1, 6] of 204 nM.

In the case of `CCCCN(CCC#N)CC(O)c1cc(C(F)(F)F)nc2c(C(F)(F)F)cccc12` (racemic) [compound 308485], the IC90 [1, 4] was 0.0883 µg/mL, the “CSI (C2A/W2)” value [1] was 9.5 and the pIC50 ([2]; Mus musculus, Macrophage) was 4.33. The IC90 (P. falciparum strain D6; [5]) was 0.0604 µg/mL (≈ 0.139 µM), the IC90 (P. falciparum strain W2; W2, read-out: PF W2 IC90) was 0.00934 µg/mL (≈ 0.0216 µM) and the IC90 [3] was 0.059 µg/mL (≈ 0.136 µM).
